{
  "source": "patent US6890954B1",
  "about": "“Uses of 2-bromopalmitate in the treatment of autoimmune disease” (priority 1999, dated 2005)",
  "assay_type_in_all_cases": "cell-based",
  "key": {"Fyn [1]": {"test_system": "Fyn", "test": "Localization of Fyn to Triton X-100 insoluble fractions in COS-1 cells", "settings": "COS-1, 1% Triton X-100 extraction; untreated: majority detergent resistant", "experimental": "(§1) Isolation of Triton X-100 resistant and soluble fractions was carried out as described previously (12). Isolation of detergent resistant microdomains by sucrose gradients were carried out as follows (19): Jurkat cells (5×10^7) were treated with 2-bromopalmitate, activated with OKT3 mAb as described above, and lysed in 1 ml lysis buffer (25 mM MES pH 6.5, 150 mM NaCl, 0.5% Triton X-100, 1 mM Na3VO4) supplemented with protease inhibitors for 30 minutes at 0° C. After homogenizing 10 times with a loose fit Dounce homogenizer, lysates were mixed with 1 ml 85% sucrose in MBS (25 mM MES pH 6.5, 150 mM NaCl), and overlayered with 6 ml 30% sucrose in MBS, then with 4 ml 5% sucrose in MBS. Following centrifugation for 16 hours at 145,000 g in an SW40 rotor, 1 ml fractions were collected and analyzed by PAGE and immunoblotting with anti-Fyn, anti-LAT, or anti-Lck antibodies.\nPrevious experiments have shown that following rapid membrane binding of newly synthesized Fyn, there is a slower partitioning of Fyn (10-20 minutes) to regions of the plasma membrane that are resistant to Triton X-100 extraction at 4° C. (12). Therefore the effect of 2-bromopalmitate on the localization of Fyn to Triton X-100 insoluble fractions was examined. Transfected COS-1 cells were left untreated or treated with 2-bromopalmitate as described above. […]"}, "Lck": {"test_system": "Lck", "test": "DRM (raft) localization in activated Jurkat cells, sucrose gradient: Lck", "settings": "100 μM 3 hours, OKT3 activated, control 59%", "experimental": "as §1\n(§2) The ability of 2-bromopalmitate to inhibit localization of palmitoylated proteins to detergent resistant microdomains in activated Jurkat cells was examined next. Cells were either left untreated or treated with 100 μM 2-bromopalmitate for 3 hours, washed, resuspended in serum-free media, and the TCR was activated with OKT3 mAb. Activated cells were extracted with Triton X-100 containing buffer. […] Each fraction was analyzed by immunoblotting with specific antibodies. […]"}, "Fyn [2]": {"test_system": "Fyn", "test": "DRM (raft) localization in activated Jurkat cells, sucrose gradient: Fyn", "settings": "100 μM 3 hours, OKT3 activated, control 88%", "experimental": "as §1, §2"}, "ZAP-70": {"test_system": "ZAP-70", "test": "CD3-mediated tyrosine phosphorylation of ZAP-70 in Jurkat cells", "settings": "100 μM 3 hours, OKT3", "experimental": "Jurkat T cells (2×10^6−1×10^7) were centrifuged at 1,000×g for 5 minutes, rinsed with RPMI, resuspended in RPMI supplemented with 2% dialyzed FBS, 0.5% defatted BSA, and incubated with or without 100 μM 2-bromopalmitate at 8×10^5 cells/ml for 3 hours. The cells were centrifuged, washed with RPMI and resuspended in RPMI at 1×10^7−1×10^8 cells/ml. The cells were then activated with anti-CD3 OKT3 mAb (0.3 mg/ml) for 3 min at 37° C., quickly spun down, washed once with cold RPMI and once with cold STE, and lysed in RIPA Samples were solubilized in 1× sample buffer containing 5% β-mercaptoethanol and subjected to SDS-PAGE, followed by immunoblotting with anti-phosphotyrosine antibody (PY99). For analysis of specific proteins, RIPA lysates were immunoprecipitated with the specific antibodies O/N, and immunoblotted for phosphotyrosine. Alternatively, proteins were immunoprecipitated with agarose-conjugated anti phosphotyrosine antibody and blotted for the specific proteins.\nIn order to identify the individual proteins whose tyrosine phosphorylation is affected by 2-bromopalmitate, lysates were immunoprecipitated with a panel of specific antibodies, and immunoblotted for phosphotyrosine. Alternatively, lysates were immunoprecipitated with an antiphosphotyrosine antibody, and blotted with antibodies to specific proteins."}, "Jurkat cells": {"test_system": "Jurkat cells", "test": "Toxicity control: LAT and actin levels by immunoblot in Jurkat cells", "settings": "toxicity check, data not shown", "experimental": "To verify that the observed inhibition of T cell receptor-mediated tyrosine phosphorylation was not a result of toxicity effects of 2-bromopalmitate, aliquots of each sample were analyzed by immunoblotting with anti-LAT and anti-actin antibodies. The levels of LAT and actin were not affected by 2-bromopalmitate (data not shown). Thus 2-bromopalmitate was able to inhibit signaling through the T cell receptor, as assayed by its ability to inhibit tyrosine phosphorylation of key substrate proteins."}, "Jurkat T cells": {"test_system": "Jurkat T cells", "test": "Calcium mobilization assay in Jurkat T cells (fluo-3, flow cytometry)", "experimental": "Jurkat cells were treated with 2-bromopalmitate as described above. The cells (2×10^5) were collected by centrifugation and resuspended at 2×10^6 cells/ml in RPMI containing in 50 μM fluo-3 with or without 100 μM 2-bromopalmitate for 30 minutes at room temperature. Cells loaded with fluo-3 were then collected by centrigation, washed with Hank's Buffered Saline Solution (5.4 mM KCl, 0.3 mM Na2HPO4, 0.4 mM KH2PO4, 4 mM NaHCO3, 1.3 mM CaCl2, 0.5 mM MgCl2, 0.6 mM MgSO4, 137 mM NaCl, 5.6 mM glucose, 20 mM Hepes pH 7.4) and resuspended in the same buffer at 5×10^5 cells/ml at 37° C. To initiate calcium flux, the cells were activated with OKT3 antibody as described above, and analyzed for free calcium ion by measurement of fluo-3 fluoresence emission by flow cytometry.\nJurkat cells were incubated with or without 2-bromopalmitate, washed and stained with the fluorescent dye fluo-3 (50 μM). Cells were activated with OKT3 antibody and analyzed by flow cytometry. […] No effect of 2-bromopalmitate on cells incubated in the absence of OKT3 was noted."}},
  "data": [
    {"smiles": "CCCCCCCCCCCCCCC(Br)C(=O)O", "note": "(stereo not shown) [2-bromopalmitate]", "values": [
      {"measurement": "Fyn association with detergent resistant vs soluble fraction", "setting": "Fyn [1]", "value": "mostly soluble"},
      {"measurement": "Lck found in the rafts", "setting": "Lck", "value": 19, "unit": "%"},
      {"measurement": "Fyn found in the rafts", "setting": "Fyn [2]", "value": 59, "unit": "%"},
      {"measurement": "ZAP-70 phosphorylation inhibited", "setting": "ZAP-70", "value": 50, "unit": "%"},
      {"measurement": "levels of LAT and actin", "setting": "Jurkat cells", "value": "not affected"},
      {"measurement": "calcium flux in response to T cell receptor activation", "setting": "Jurkat T cells; 100 μM, OKT3 activated", "value": "shut down almost completely"},
      {"measurement": "effect on calcium in cells incubated in the absence of OKT3", "setting": "Jurkat T cells; no OKT3", "value": "No effect"}
    ]}
  ]
}
